Data reported in US20240190872A1, “FABI INHIBITORS FOR GRAM-NEGATIVE PATHOGENS” (THE BOARD OF TRUSTEES OF THE UNIVERSITY OF ILLINOIS, priority 2021, published 2024).
≈ marks a conversion by molar mass, not a printed value.

Assays:
Format in all cases: cell-based
E. coli MG1655 = assay: Antimicrobial susceptibility test (MIC); conditions: for % @ 32 (in brackets after MIC): E. coli MG1655, 32 μg/mL
Source text: (§1) Bacterial strains. S. aureus ATCC 29213, E. coli MG1655, E. coli BAA-2340, E. coli BAA-2469, E. coli BAA-2471, E. cloacae BAA-2341, E. cloacae BAA-2468, K. pneumoniae BAA-1705, K. pneumoniae BAA-2342, K. pneumoniae BAA-2470, K. pneumoniae BAA-2472, and K. pneumoniae BAA-2473 were obtained from ATCC. E. coli JW5503 and E. coli JW3596 were obtained from the KEIO Collection. E. cloacae ATCC 29893 was provided by W. van der Donk (UIUC). E. coli AR-0346, E. coli AR-0349, E. coli AR-0493, E. coli AR-0495, and K. pneumoniae AR-0347 were obtained from the CDC and FDA AR Isolate Bank. E. coli F20987, E. coli M66623, E. cloacae S28901.1, K. pneumoniae M14723, K. pneumoniae M67198, K. pneumoniae M67297, K. pneumoniae S20595, K. pneumoniae S47889, A. baumannii W41979, A. baumannii F19521, A. baumannii M13100, and A. baumannii WO22 were obtained from the University of Illinois Chicago Medical School. A. baumannii KB304, A. baumannii KB343, and A. baumannii KB357 were provided by J. Quale.
(§2) Antimicrobial susceptibility tests. Susceptibility testing was performed in biological triplicate, using the micro-dilution broth method as outlined by the Clinical and Laboratory Standards Institute. Bacteria were cultured with cation-adjusted Muller-Hinton broth (Sigma-Aldrich, Cat# 90922) in round-bottom 96-well plates (Corning, Cat# 3788). Human serum (pooled gender, 0.2 μm filtered) was purchased from BioIVT (Hicksville, NY).

S. aureus ATCC 29213 = assay: Antimicrobial susceptibility test (MIC), micro-dilution broth; conditions: for MIC S. aureus 29213: S. aureus ATCC 29213
Source text: as §1, §2

E. coli ΔtolC (JW5503) = conditions: for % @ 0.5 (in brackets after MIC): 0.5 μg/mL; for MIC E. coli ΔtolC: efflux deficient E. coli ΔtolC
Procedure: (§3) The compounds synthesized, shown in Table 1, were evaluated against Gram-positive and Gram-negative reference strains (S. aureus 29213 and E. coli MG1655, respectively), as well as an efflux deficient E. coli strain (ΔtolC, JW5503).
as §1, §2

K. pneumoniae AR 0066 = assay: microbe, parasite or virus in culture; conditions: clinical isolate
Procedure: as §2

A. baumannii AR 0033 = assay: microbe, parasite or virus in culture; conditions: clinical isolate
Procedure: as §2

A. baumannii AR 0313 = assay: microbe, parasite or virus in culture; conditions: clinical isolate
Procedure: as §2

A. baumannii AR 0299 = assay: microbe, parasite or virus in culture; conditions: clinical isolate
Procedure: as §2

K. pneumoniae AR 0560 = assay: microbe, parasite or virus in culture; conditions: clinical isolate
Procedure: as §2

A. baumannii AR 0273 = assay: microbe, parasite or virus in culture; conditions: clinical isolate
Procedure: as §2

E. coli AR 0085 = assay: microbe, parasite or virus in culture; conditions: clinical isolate
Procedure: as §2

K. pneumoniae AR 0113 = assay: microbe, parasite or virus in culture; conditions: clinical isolate
Procedure: as §2

E. coli AR 0048 = assay: microbe, parasite or virus in culture; conditions: clinical isolate
Procedure: as §2

K. pneumoniae BAA 2472 = assay: microbe, parasite or virus in culture; conditions: clinical isolate
Procedure: as §3, §1, §2

Row | SMILES | MIC E. coli MG1655 (E. coli MG1655) [µg/mL] | MIC S. aureus 29213 (S. aureus ATCC 29213) [µg/mL] | MIC E. coli ΔtolC (E. coli ΔtolC (JW5503)) [µg/mL] | further results
1 | Cc1c(CN(C)C(=O)/C=C/c2cnc3c(c2)CC(NCCN)C(=O)N3)oc2ccccc12.Cl (stereo not drawn) | > 32 | 0.5 | 1 | % @ 32 (in brackets after MIC) (E. coli MG1655): 35%; % @ 0.25 (in brackets after MIC) (S. aureus ATCC 29213; S. aureus ATCC 29213, 0.25 μg/mL): 80%; % @ 0.5 (in brackets after MIC) (E. coli ΔtolC (JW5503); E. coli ΔTolC): 50%
2 | Cc1c(CN(C)C(=O)/C=C/c2cnc3c(c2)CC(N)C(=O)N3)oc2ccc(F)cc12.Cl (stereo not drawn) | > 32 | 0.125 | 1 | % @ 32 (in brackets after MIC) (E. coli MG1655): 40%; % @ 0.062 (in brackets after MIC) (S. aureus ATCC 29213; S. aureus ATCC 29213, 0.062 μg/mL): 60%; % @ 0.5 (in brackets after MIC) (E. coli ΔtolC (JW5503); E. coli ΔTolC): 60%
3 | Cc1c(CN(C)C(=O)C=Cc2cnc3c(c2)CC2(CC(CN)C2)C(=O)N3)oc2ccccc12 (mixture of isomers) [(±)-7] | 16 | 0.031 | 0.125 | 
4 | Cc1c(CN(C)C(=O)/C=C/c2cnc3c(c2)CCC(N)C(=O)N3)oc2ccccc12 (single isomer, unassigned) [drawing 110] | 2 (≈ 4.94 µM) | 0.004 to 0.008 | 0.031 (≈ 0.0766 µM) | % @ 0.016 (in brackets after MIC) (E. coli ΔtolC (JW5503); E. coli ΔTolC, 0.016 μg/mL): 40-95%
5 | Cc1c(CN(C)C(=O)/C=C/c2cnc3c(c2)CCC(N)C(=O)N3)oc2ccccc12 (racemic) [drawing 108] | 4 (≈ 9.89 µM) | 0.016 (≈ 0.0396 µM) | 0.031 (≈ 0.0766 µM) | 
6 | Cc1c(CN(C)C(=O)C=Cc2cnc3c(c2)CC2(CCC(N)CC2)C(=O)N3)oc2ccccc12 (mixture of isomers) [(±)-8] | 16 | 0.016 | 0.062 | 
7 | Cc1c(CN(C)C(=O)/C=C/c2cnc3c(c2)CC(CCN)C(=O)N3)oc2ccccc12.Cl (racemic) | 8 | 0.016 | 0.062 | 
8 | NC1CCc2cc(C=CC(=O)N3CC4C=C(c5ccccc5)CC4C3)cnc2NC1=O (mixture of isomers) | 8 | 0.031 | 0.062 | 
9 | Cc1c(CN(C)C(=O)/C=C/c2ccc3c(c2)CCC(N)C(=O)N3)oc2ccccc12 (single isomer, unassigned) [Isomer 2] |  |  |  | MIC K. pneumoniae AR 0066 (K. pneumoniae AR 0066): 4 µg/mL (≈ 9.91 µM); MIC A. baumannii AR 0033 (A. baumannii AR 0033): 2 µg/mL (≈ 4.96 µM); MIC A. baumannii AR 0313 (A. baumannii AR 0313): 4 µg/mL (≈ 9.91 µM); MIC A. baumannii AR 0299 (A. baumannii AR 0299): 2 µg/mL (≈ 4.96 µM); MIC K. pneumoniae AR 0560 (K. pneumoniae AR 0560): 4 µg/mL (≈ 9.91 µM); MIC A. baumannii AR 0273 (A. baumannii AR 0273): 4 µg/mL (≈ 9.91 µM); MIC E. coli AR 0085 (E. coli AR 0085): 2 µg/mL (≈ 4.96 µM); MIC K. pneumoniae AR 0113 (K. pneumoniae AR 0113): 8 µg/mL (≈ 19.8 µM); MIC E. coli AR 0048 (E. coli AR 0048): 4 µg/mL (≈ 9.91 µM); MIC K. pneumoniae BAA 2472 (K. pneumoniae BAA 2472): 4 µg/mL (≈ 9.91 µM)
10 | Cc1c(CN(C)C(=O)/C=C/c2cnc3c(c2)CC(N)C(=O)N3)oc2cccc(F)c12.Cl (stereo not drawn) | 8 | 0.031 | 0.125 | 
11 | Cc1c(CN(C)C(=O)/C=C/c2cnc3c(c2)CC2(CNC2)C(=O)N3)oc2ccccc12 [drawing 106] |  |  |  | MIC K. pneumoniae AR 0066 (K. pneumoniae AR 0066): 8 µg/mL (≈ 19.2 µM); MIC A. baumannii AR 0033 (A. baumannii AR 0033): 8 µg/mL (≈ 19.2 µM); MIC A. baumannii AR 0313 (A. baumannii AR 0313): 16 µg/mL (≈ 38.4 µM); MIC A. baumannii AR 0299 (A. baumannii AR 0299): 16 µg/mL (≈ 38.4 µM); MIC K. pneumoniae AR 0560 (K. pneumoniae AR 0560): 16 µg/mL (≈ 38.4 µM); MIC A. baumannii AR 0273 (A. baumannii AR 0273): 16 µg/mL (≈ 38.4 µM); MIC E. coli AR 0085 (E. coli AR 0085): 4 µg/mL (≈ 9.6 µM); MIC K. pneumoniae AR 0113 (K. pneumoniae AR 0113): 16 µg/mL (≈ 38.4 µM); MIC E. coli AR 0048 (E. coli AR 0048): 8 µg/mL (≈ 19.2 µM); MIC K. pneumoniae BAA 2472 (K. pneumoniae BAA 2472): 8 µg/mL (≈ 19.2 µM)
12 | Cc1c(CN(C)C(=O)/C=C/c2cnc3c(c2)CCC(N)C(=O)N3)oc2ccccc12 (racemic) [drawing 87] | 4 (≈ 9.89 µM) | 0.016 (≈ 0.0396 µM) | 0.031 (≈ 0.0766 µM) | 
13 | Cc1c(CN(C)C(=O)/C=C/c2cnc3c(c2)CCC(N)C(=O)N3)oc2ccccc12 (single isomer, unassigned) [drawing 109] | > 32 | 0.125 to 0.250 | > 1 | % @ 32 (in brackets after MIC) (E. coli MG1655): 20%; % @ 1 (in brackets after MIC) (E. coli ΔtolC (JW5503); E. coli ΔTolC, 1 μg/mL): 50%
14 | Cc1c(CN(C)C(=O)C=Cc2cnc3c(c2)CC2(CCC(CN)CC2)C(=O)N3)oc2ccccc12 (mixture of isomers) [(±)-9] | 16 | 0.031 | 0.062 | 
15 | Cc1c(CN(C)C(=O)/C=C/c2cnc3c(c2)CCC(=O)N3)oc2ccccc12 [drawing 82, reference compound] |  | 0.008 to 0.016 | 0.031 (≈ 0.0826 µM) | 
16 | Cc1c(CN(C)C(=O)/C=C/c2cnc3c(c2)CC(CN)C(=O)N3)oc2ccccc12.Cl (racemic) | 8 | 0.031 | 0.125 | 
17 | Cc1c(CN(C)C(=O)/C=C/c2cnc3c(c2)CC2(CC(N)C2)C(=O)N3)oc2ccccc12 (stereo not drawn) | 4 (≈ 9.29 µM) | 0.016 (≈ 0.0372 µM) | 0.062 (≈ 0.144 µM) | 
18 | Cc1c(CN(C)C(=O)/C=C/c2cnc3c(c2)CC(N)C(=O)N3)oc2c(F)cccc12.Cl (stereo not drawn) | 8 | 0.016 | 0.062 | % @ 4 (in brackets after MIC) (E. coli MG1655; E. coli MG1655, 4 μg/mL): 50-80%
19 | Cc1c(CN(C)C(=O)/C=C/c2cnc3c(c2)CCC(CCN)C(=O)N3)oc2ccccc12 (racemic) [(±)-13] | 32 (≈ 74 µM) | 0.062 (≈ 0.143 µM) | 0.125 (≈ 0.289 µM) | 
20 | Cc1c(CN(C)C(=O)/C=C/c2cnc3c(c2)CC(NCCCN)C(=O)N3)oc2ccccc12.O=CO (stereo not drawn) | >32 | 0.250 | 0.5 | 
21 | Cc1c(CN(C)C(=O)/C=C/c2cnc3c(c2)CC(N)C(=O)N3)oc2ccccc12.Cl (racemic) [reference compound] | 4 | 0.03125 | 0.062 | 
22 | Cc1c(CN(C)C(=O)/C=C/c2cnc3c(c2)CC(N)C(=O)N3)oc2cc(F)ccc12.Cl (stereo not drawn) | > 32 | 0.062 | 0.5 | % @ 32 (in brackets after MIC) (E. coli MG1655): 65%
23 | NC1Cc2cc(C=CC(=O)N3CC4C=C(c5ccccc5)CC4C3)cnc2NC1=O (mixture of isomers) | 16 | 0.062 | 0.062 | 
